Measurements taken from ChEMBL document CHEMBL5393457, “Combined inhibition of amino acid transporters for inhibiting human plasmacytoid dendritic cell activity during autoimmunity” (2022).
Activity calls are given as the source filed them. The rule behind the calls is not given here.

Legend:
[1] = molecular target: T1, Cystine/glutamate transporter (Homo sapiens) (UniProt Q9UPY5); test: Inhibition of XCT in CpG-A-activated human plasmacytoid dendritic cells at 5 uM assessed as decrease in S6 phosphorylation; assay type: cell-based; details: Plasmacytoid dendritic cell
T1 sequence (whole entry): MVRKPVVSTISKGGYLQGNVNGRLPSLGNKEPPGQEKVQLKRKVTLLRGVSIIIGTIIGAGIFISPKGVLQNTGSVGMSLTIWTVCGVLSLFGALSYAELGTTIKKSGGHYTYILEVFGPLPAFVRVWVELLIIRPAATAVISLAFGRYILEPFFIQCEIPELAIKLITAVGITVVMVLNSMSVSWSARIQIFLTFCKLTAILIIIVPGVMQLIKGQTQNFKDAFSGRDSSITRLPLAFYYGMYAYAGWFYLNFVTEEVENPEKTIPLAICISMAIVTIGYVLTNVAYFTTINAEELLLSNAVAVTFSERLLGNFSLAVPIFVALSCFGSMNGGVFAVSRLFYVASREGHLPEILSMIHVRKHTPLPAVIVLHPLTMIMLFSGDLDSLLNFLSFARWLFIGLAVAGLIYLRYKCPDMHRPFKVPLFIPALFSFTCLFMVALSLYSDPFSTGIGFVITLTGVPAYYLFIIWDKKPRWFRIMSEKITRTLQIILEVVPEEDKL

[2] = molecular target: T1, Cystine/glutamate transporter (Homo sapiens); test: Inhibition of XCT in CpG-A-activated human plasmacytoid dendritic cells at 1 uM assessed as decrease in IFN-alpha production; assay type: cell-based; details: Plasmacytoid dendritic cell
[3] = molecular target: T1, Cystine/glutamate transporter (Homo sapiens); test: Inhibition of XCT in CpG-A-activated human plasmacytoid dendritic cells at 5 uM assessed as decrease in TNF production; assay type: cell-based; details: Plasmacytoid dendritic cell
[4] = molecular target: T1, Cystine/glutamate transporter (Homo sapiens); test: Inhibition of XCT in IL-3 CpG-A-activated human plasma at 10 uM assessed as decrease in pDC activation
[5] = molecular target: T1, Cystine/glutamate transporter (Homo sapiens); test: Inhibition of XCT in CpG-A-activated human plasmacytoid dendritic cells at 10 uM assessed as decrease in MYO1E expression; assay type: cell-based; details: Plasmacytoid dendritic cell
[6] = molecular target: T1, Cystine/glutamate transporter (Homo sapiens); test: Inhibition of XCT in CpG-A-activated human plasmacytoid dendritic cells at 5 uM assessed as decrease in IFN-alpha production; assay type: cell-based; details: Plasmacytoid dendritic cell
[7] = molecular target: T1, Cystine/glutamate transporter (Homo sapiens); test: Inhibition of XCT in CpG-A-activated human plasmacytoid dendritic cells at 1 uM assessed as decrease in TNF production; assay type: cell-based; details: Plasmacytoid dendritic cell
[8] = molecular target: T1, Cystine/glutamate transporter (Homo sapiens); test: Inhibition of XCT in CpG-A-activated human plasmacytoid dendritic cells at 10 uM assessed as decrease in ENPP2 expression; assay type: cell-based; details: Plasmacytoid dendritic cell
[9] = molecular target: T1, Cystine/glutamate transporter (Homo sapiens); test: Inhibition of XCT in CpG-A-activated human plasmacytoid dendritic cells at 5 uM assessed as decrease in kynurenine uptake; assay type: cell-based; details: Plasmacytoid dendritic cell
[10] = molecular target: Large neutral amino acids transporter small subunit 1 (Homo sapiens) (UniProt Q01650); test: Inhibition of human LAT1 at 100 uM relative to control
Large neutral amino acids transporter small subunit 1 (Homo sapiens), sequence (Q01650 whole entry): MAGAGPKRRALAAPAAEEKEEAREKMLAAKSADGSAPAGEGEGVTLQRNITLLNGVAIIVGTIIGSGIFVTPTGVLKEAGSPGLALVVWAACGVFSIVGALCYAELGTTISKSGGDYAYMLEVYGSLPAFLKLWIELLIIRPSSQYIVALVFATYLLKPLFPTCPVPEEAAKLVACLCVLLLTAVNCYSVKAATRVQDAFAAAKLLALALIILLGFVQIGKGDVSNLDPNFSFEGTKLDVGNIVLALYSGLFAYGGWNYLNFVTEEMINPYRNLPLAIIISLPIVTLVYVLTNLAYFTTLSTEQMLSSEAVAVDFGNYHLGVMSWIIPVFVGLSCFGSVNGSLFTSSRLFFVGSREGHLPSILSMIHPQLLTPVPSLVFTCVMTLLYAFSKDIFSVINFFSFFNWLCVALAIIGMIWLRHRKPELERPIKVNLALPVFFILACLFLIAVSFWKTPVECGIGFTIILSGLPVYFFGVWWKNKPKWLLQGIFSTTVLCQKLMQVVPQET

[11] = molecular target: Tyrosine-protein kinase JAK2 (Homo sapiens) (UniProt O60674); test: Inhibition of JAK2 in CpG-A and GM-CSF-activated human plasmacytoid dendritic cells at 1 uM assessed as decrease in TNF production; assay type: cell-based; details: Plasmacytoid dendritic cell
Tyrosine-protein kinase JAK2 (Homo sapiens), sequence (O60674 whole entry): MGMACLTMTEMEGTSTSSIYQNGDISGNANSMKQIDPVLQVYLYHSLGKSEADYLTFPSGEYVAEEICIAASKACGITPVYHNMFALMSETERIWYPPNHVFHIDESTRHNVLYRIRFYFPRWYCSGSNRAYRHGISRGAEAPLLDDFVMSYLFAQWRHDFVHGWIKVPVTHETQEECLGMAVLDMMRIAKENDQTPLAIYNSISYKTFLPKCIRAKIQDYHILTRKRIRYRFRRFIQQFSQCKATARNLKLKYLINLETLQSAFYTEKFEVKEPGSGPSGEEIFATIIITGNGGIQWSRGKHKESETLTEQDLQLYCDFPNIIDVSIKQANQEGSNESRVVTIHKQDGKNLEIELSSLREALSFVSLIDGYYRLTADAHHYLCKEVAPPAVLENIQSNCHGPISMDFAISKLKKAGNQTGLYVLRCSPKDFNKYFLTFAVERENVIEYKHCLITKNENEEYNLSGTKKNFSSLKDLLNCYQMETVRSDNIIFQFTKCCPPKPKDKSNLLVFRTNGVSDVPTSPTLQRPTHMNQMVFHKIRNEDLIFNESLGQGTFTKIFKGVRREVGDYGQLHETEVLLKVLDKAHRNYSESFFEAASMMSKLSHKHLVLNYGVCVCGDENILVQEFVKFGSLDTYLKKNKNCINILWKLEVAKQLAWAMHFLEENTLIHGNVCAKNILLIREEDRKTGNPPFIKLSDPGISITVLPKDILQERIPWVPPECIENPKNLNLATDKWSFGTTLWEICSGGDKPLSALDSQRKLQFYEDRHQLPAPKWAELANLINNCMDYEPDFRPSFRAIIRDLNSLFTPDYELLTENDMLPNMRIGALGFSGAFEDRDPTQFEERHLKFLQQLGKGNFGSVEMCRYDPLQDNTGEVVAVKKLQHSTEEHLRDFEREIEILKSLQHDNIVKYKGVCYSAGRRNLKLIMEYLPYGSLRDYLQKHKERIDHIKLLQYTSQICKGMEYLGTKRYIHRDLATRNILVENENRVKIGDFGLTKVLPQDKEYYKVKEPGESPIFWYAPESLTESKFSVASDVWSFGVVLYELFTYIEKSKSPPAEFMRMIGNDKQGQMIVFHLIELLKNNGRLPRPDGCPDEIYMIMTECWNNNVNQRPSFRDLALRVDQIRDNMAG

[12] = molecular target: Tyrosine-protein kinase JAK2 (Homo sapiens) (UniProt O60674); test: Inhibition of JAK2 in CpG-A and GM-CSF-activated human plasmacytoid dendritic cells at 1 uM assessed as decrease in kynurenine uptake; assay type: cell-based; details: Plasmacytoid dendritic cell
[13] = molecular target: Tyrosine-protein kinase JAK2 (Homo sapiens) (UniProt O60674); test: Inhibition of JAK2 in CpG-A and GM-CSF-activated human plasmacytoid dendritic cells at 1 uM assessed as decrease in IFN-alpha production; assay type: cell-based; details: Plasmacytoid dendritic cell
[14] = molecular target: Tyrosine-protein kinase JAK2 (Homo sapiens) (UniProt O60674); test: Inhibition of JAK2 in CpG-A and GM-CSF-activated human plasmacytoid dendritic cells at 1 uM assessed as decrease in mTORC1 activity; assay type: cell-based; details: Plasmacytoid dendritic cell
[15] = tested on: Plasmacytoid dendritic cell; test: Inhibition of mTORC1/mTORC2 in CpG-A and IL-3-activated human plasmacytoid dendritic cells at 200 ng/mL assessed as decrease in SLC7A5 expression; assay type: cell-based
[16] = tested on: Plasmacytoid dendritic cell; test: Inhibition of mTORC1/mTORC2 in TLR9-activated human plasmacytoid dendritic cells at 1 uM assessed as decrease in CpG-A stimulated SLC7A11 expression; assay type: cell-based
[17] = tested on: Plasmacytoid dendritic cell; test: Inhibition of mTORC1/mTORC2 in CpG-A and IL-3-activated human plasmacytoid dendritic cells at 200 ng/mL assessed as decrease in TNF production; assay type: cell-based
[18] = tested on: Plasmacytoid dendritic cell; test: Inhibition of mTORC1/mTORC2 in IL-3 and CpG-A-activated human plasmacytoid dendritic cells at 200 nM assessed as decrease in decrease in MYO1E/IFNA2 expression; assay type: cell-based
[19] = tested on: Plasmacytoid dendritic cell; test: Inhibition of mTORC1/mTORC2 in CpG-A and IL-3-activated human plasmacytoid dendritic cells at 200 ng/mL assessed as decrease in SLC3A2 expression; assay type: cell-based
[20] = tested on: Plasmacytoid dendritic cell; test: Inhibition of mTORC1/mTORC2 in IL-3 and CpG-A-activated human plasmacytoid dendritic cells at 200 nM assessed as decrease in decrease in ENPP2/IFNA2 expression; assay type: cell-based
[21] = tested on: Plasmacytoid dendritic cell; test: Inhibition of mTORC1/mTORC2 in CpG-A and IL-3-activated human plasmacytoid dendritic cells at 200 ng/mL assessed as decrease in IFN-alpha production; assay type: cell-based
[22] = molecular target: T2, Signal transducer and activator of transcription 5A (Homo sapiens) (UniProt P42229); test: Inhibition of STAT5 in IL-3 and CpG-A-stimulated human plasmacytoid dendritic cells at 1 to 2 uM assessed as decrease in IFN-alpha production in presence of 100 uM sulfasalazine; assay type: cell-based; details: Plasmacytoid dendritic cell, dose 1-2 µM
T2 sequence (whole entry): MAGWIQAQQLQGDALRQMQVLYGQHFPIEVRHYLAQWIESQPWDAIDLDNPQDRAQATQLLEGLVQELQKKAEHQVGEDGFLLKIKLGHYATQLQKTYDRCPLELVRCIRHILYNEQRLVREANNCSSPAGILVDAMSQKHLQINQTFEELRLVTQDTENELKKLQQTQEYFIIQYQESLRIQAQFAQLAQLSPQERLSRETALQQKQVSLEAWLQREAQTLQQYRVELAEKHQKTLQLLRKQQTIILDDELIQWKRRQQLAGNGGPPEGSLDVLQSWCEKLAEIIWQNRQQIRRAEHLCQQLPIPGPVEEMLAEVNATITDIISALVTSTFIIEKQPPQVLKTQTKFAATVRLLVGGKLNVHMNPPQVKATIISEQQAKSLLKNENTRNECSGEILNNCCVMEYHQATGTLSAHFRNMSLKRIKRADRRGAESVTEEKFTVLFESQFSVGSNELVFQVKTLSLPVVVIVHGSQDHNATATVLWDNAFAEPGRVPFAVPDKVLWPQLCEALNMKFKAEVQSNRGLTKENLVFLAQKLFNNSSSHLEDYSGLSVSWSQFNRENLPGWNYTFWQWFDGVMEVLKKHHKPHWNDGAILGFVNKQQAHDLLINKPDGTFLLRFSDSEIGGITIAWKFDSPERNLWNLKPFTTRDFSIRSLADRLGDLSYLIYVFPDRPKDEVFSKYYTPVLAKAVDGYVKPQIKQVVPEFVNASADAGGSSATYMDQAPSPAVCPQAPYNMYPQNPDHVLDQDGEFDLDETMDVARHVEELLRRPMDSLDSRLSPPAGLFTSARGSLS

[23] = molecular target: T2, Signal transducer and activator of transcription 5A (Homo sapiens); test: Inhibition of STAT5 in IL-3 and CpG-A-stimulated human plasmacytoid dendritic cells at 1 to 2 uM assessed as decrease in TNF production in presence of 100 uM sulfasalazine; assay type: cell-based; details: Plasmacytoid dendritic cell, dose 1-2 µM
[24] = molecular target: Tyrosine-protein kinase JAK2 (Homo sapiens) (UniProt O60674); test: Inhibition of JAK2 in IL3- and CpG-A-activated human plasmacytoid dendritic cells at 20 nM assessed as decrease in MYO1E/IFNA2 expression; assay type: cell-based; details: Plasmacytoid dendritic cell
mTORC1 (Homo sapiens) [25] = molecular target: T3, mTORC1 (Homo sapiens) (UniProt P42345+Q8N122+Q9BVC4); details: Plasmacytoid dendritic cell, dose 250.0 nM
T3 sequence (Q8N122 whole entry, looked up, other chains not shown): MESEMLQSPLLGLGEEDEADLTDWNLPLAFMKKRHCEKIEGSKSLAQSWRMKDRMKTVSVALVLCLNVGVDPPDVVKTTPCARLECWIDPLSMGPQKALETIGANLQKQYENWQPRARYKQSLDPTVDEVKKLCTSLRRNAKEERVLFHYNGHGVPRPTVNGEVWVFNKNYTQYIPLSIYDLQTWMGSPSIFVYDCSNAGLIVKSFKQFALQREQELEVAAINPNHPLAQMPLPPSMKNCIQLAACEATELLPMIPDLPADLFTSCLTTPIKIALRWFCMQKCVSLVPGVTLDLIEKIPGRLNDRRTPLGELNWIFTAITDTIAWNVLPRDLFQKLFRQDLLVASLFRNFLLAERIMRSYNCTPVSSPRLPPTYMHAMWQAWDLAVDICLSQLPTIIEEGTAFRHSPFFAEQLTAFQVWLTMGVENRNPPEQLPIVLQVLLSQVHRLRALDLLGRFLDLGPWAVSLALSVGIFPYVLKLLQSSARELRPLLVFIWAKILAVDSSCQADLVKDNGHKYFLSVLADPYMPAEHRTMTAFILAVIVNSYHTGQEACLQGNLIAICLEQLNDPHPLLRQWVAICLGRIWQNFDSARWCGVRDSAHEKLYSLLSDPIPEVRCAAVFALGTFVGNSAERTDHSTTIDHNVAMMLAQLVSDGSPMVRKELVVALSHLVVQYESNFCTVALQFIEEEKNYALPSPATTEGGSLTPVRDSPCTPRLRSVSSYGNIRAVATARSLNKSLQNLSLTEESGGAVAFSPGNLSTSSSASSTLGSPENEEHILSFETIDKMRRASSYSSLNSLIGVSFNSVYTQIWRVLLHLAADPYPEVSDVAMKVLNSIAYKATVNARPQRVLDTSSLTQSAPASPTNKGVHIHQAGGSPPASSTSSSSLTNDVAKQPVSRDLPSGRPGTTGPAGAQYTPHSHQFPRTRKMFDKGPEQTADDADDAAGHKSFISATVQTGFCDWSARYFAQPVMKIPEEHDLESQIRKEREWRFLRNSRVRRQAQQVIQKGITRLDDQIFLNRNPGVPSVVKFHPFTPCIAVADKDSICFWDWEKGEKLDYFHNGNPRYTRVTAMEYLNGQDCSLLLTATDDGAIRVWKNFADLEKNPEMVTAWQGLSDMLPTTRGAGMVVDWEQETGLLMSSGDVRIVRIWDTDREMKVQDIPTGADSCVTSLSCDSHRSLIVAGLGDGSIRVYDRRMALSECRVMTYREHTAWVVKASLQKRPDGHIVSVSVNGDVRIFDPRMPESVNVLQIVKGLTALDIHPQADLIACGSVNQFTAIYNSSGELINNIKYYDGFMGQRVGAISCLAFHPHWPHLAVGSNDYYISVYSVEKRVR
T3 sequence (Q9BVC4 whole entry, looked up, other chains not shown): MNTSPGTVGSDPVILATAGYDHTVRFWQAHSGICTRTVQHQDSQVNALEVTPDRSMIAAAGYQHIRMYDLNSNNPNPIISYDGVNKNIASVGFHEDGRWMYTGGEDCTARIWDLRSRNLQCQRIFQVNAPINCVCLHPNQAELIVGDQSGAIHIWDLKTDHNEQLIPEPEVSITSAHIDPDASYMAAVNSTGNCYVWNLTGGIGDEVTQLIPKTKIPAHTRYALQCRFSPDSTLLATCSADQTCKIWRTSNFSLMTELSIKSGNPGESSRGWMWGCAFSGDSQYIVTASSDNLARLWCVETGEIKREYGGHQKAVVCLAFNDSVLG
Description: Inhibition of mTORC1 in CpG-A-stimulated human plasmacytoid dendritic cells at 250 nM assessed as decrease in lactate release

[26] = molecular target: Tyrosine-protein kinase JAK2 (Homo sapiens) (UniProt O60674); test: Inhibition of JAK2 in TLR9-activated human plasmacytoid dendritic cells at 20 nM assessed as decrease in CpG-A stimulated SLC7A11 expression; assay type: cell-based; details: Plasmacytoid dendritic cell
mTORC1 (Homo sapiens) [27] = molecular target: T3, mTORC1 (Homo sapiens); details: Plasmacytoid dendritic cell, dose 20.0 nM
Description: Inhibition of mTORC1 in CpG-A-stimulated human plasmacytoid dendritic cells at 20 nM assessed as decrease in lactate release

[28] = molecular target: Tyrosine-protein kinase JAK2 (Homo sapiens) (UniProt O60674); test: Inhibition of JAK2 in IL3- and CpG-A-activated human plasmacytoid dendritic cells at 20 nM assessed as decrease in ENPP2/IFNA2 expression; assay type: cell-based; details: Plasmacytoid dendritic cell

In the case of `CCOc1ccccc1-n1c(C(C)N2CCN(C(=O)COc3ccc(Cl)cc3)CC2)nc2ccccc2c1=O` (stereo not given), the inhibition [1] is reported as “Active”, the inhibition [2] is reported as “Active” and the inhibition [3] is reported as “Active”. The inhibition [4] was “Active”, the inhibition [5] was “Active” and the inhibition [6] was “Active”. For the same compound, the inhibition [7] was “Active”, the inhibition [8] was “Active” and the inhibition [9] was “Active”.
Compound `FC(F)(F)Oc1ccc(/N=c2\ssnc2Cl)cc1` has an inhibition [10] of over 90%.
For `Cc1cc(Nc2nc(N[C@@H](C)c3ncc(F)cn3)ncc2Cl)[nH]n1`, the inhibition [11] was “Active”, the inhibition [12] was “Active” and the inhibition [13] was “Active”. For the same compound, the inhibition [14] was “Active”.
`N#Cc1cc(Br)ccc1/N=c1\ssnc1Cl` gave an inhibition [10] of over 90%.
`CCC(=O)N1CCN(c2ccc(-n3c(=O)ccc4cnc5ccc(-c6cnc7ccccc7c6)cc5c43)cc2C(F)(F)F)CC1` was tested, and the inhibition [15] was “Active”, the inhibition [16] was “Active” and the inhibition [17] was “Active”. The inhibition [18] was “Active”, the inhibition [19] was “Active” and the inhibition [20] was “Active”. For the same compound, the inhibition [21] was “Active”.
In the case of `CC(C)(C)c1cc(CN(C(=O)CN(Cc2ccc(Cl)cc2)S(=O)(=O)c2c(F)c(F)c(F)c(F)c2F)c2ccc(C(=O)O)cc2)cc(C(C)(C)C)c1`, the inhibition [22] is reported as “Active” and the inhibition [23] is reported as “Active”.
Compound `N#Cc1ccc(Cl)cc1/N=c1\ssnc1Cl` has an inhibition [10] of over 90%.
For `CO[C@H]1CC2CC[C@@H](C)[C@@](O)(O2)C(=O)C(=O)N2CCCC[C@H]2C(=O)O[C@H]([C@H](C)C[C@@H]2CC[C@@H](O)[C@H](OC)C2)CC(=O)[C@H](C)/C=C(\C)[C@@H](O)[C@@H](OC)C(=O)[C@H](C)C[C@H](C)/C=C/C=C/C=C/1C`, the inhibition [24] was “Active”, the inhibition (mTORC1 (Homo sapiens) [25]) was “Active” and the inhibition [26] was “Active”. The inhibition (mTORC1 (Homo sapiens) [27]) was “Active” and the inhibition [28] was “Active”.
